One molecule from PMC7035787 (Molecular pharmaceutics, 2019) can be followed below.

The AUC(0-inf) is total exposure, with the tail of the curve extrapolated. A lower AUC(0-inf) goes with low exposure. In general, Cmax refers to the peak of the concentration-time curve.

SMILES strings stand for the structures.

Data set [1] is described as follows: Pulmonary retention in isolated perfused rat lung. As to conditions: rat, 3 mg/kg, 2 h. The data set is classed as in vitro ADME.
For data set [2], the system named is lungs from sham and PAH rats. The data set is described as follows: Pulmonary retention in isolated perfused rat lung. The data set is classed as in vitro ADME. As to conditions: IT route, sham and PAH lungs.
A short description of the next data set: in vivo. The following applies: male, Sprague-Dawley, rat, 3 mg/kg.

For `O=S(=O)(c1cccc2cnccc12)N1CCCNCC1` [plain fasudil, fasudil], the recovery at 2 h in data set [1] (IPRL tubes (circuitry), other: intratracheal (IT) via the tracheal cannula, pH 7.4, recovery dose (%) IPRL tubes, IT route, PAH lungs, by subtraction from dose) was 16.6 ± 7.7%; in data set [1] (IPRL tubes (circuitry), other: intratracheal (IT) via the tracheal cannula, pH 7.4, recovery dose (%) IPRL tubes, IT route, Sham lungs, by subtraction from dose), 7.4 ± 1%; in data set [1] (lung homogenate, other: intratracheal (IT) via the tracheal cannula, pH 7.4, recovery dose (%) lung, IT route, PAH lungs, fasudil 3 mg/kg), 70.1 ± 7.3%; in data set [1] (lung homogenate, other: intratracheal (IT) via the tracheal cannula, pH 7.4, recovery dose (%) lung, IT route, Sham lungs, fasudil 3 mg/kg), 71.8 ± 2%; in data set [1] (lung homogenate, other: via the cannulated pulmonary artery, mimicking IV, pH 7.4, recovery dose (%) lung, IV-mimicking route, PAH lungs, fasudil 3 mg/kg), 49.6 ± 6.2%; in data set [1] (lung homogenate, other: via the cannulated pulmonary artery, mimicking IV, pH 7.4, recovery dose (%) lung, IV-mimicking route, Sham lungs, fasudil 3 mg/kg), 34.7 ± 3.2%. Further, the recovery at 2 h is 13.3 ± 2.6% in data set [1] (perfusate, other: intratracheal (IT) via the tracheal cannula, pH 7.4, recovery dose (%) perfusate, IT route, PAH lungs, fasudil 3 mg/kg); 20.8 ± 2.7% in data set [1] (perfusate, other: intratracheal (IT) via the tracheal cannula, pH 7.4, recovery dose (%) perfusate, IT route, Sham lungs, fasudil 3 mg/kg); 39.1 ± 3.9% in data set [1] (perfusate, other: via the cannulated pulmonary artery, mimicking IV, pH 7.4, recovery dose (%) perfusate, IV-mimicking route, PAH lungs, fasudil 3 mg/kg); 56.5 ± 5.3% in data set [1] (perfusate, other: via the cannulated pulmonary artery, mimicking IV, pH 7.4, recovery dose (%) perfusate, IV-mimicking route, Sham lungs, fasudil 3 mg/kg). In data set [2], the “drug concentration in the perfusate” value is reported as “about 10 μg/mL”. Moreover, the AUC(0-inf) in the data set “in vivo” and in “in vivo” (iv) was 5.967 ± 0.0259 µg·h/mL in each case. In addition, the highest level in the data set “in vivo” (inhaled or intranasal) (Cmax) was 3.04 ± 0.635 µg/mL.
